Laboratory results taken from the NIST ThermoML archive (doi:10.1021/acs.jced.5b00612).
± gives the expanded uncertainty stated by the source.

Conditions: Liquid

CCCCCCCCCCCCCC(=O)OCC [ethyl tetradecanoate]
viscosity [mPa·s]
Conditions | 293.15 K | 313.15 K | 333.15 K | 353.15 K
101.3 kPa, Falling or rolling sphere viscometry | 4.73 ± 0.11 | 2.96 ± 0.07 | 2.03 ± 0.05 | 1.48 ± 0.03
101.3 kPa, quartz crystal resonator | 4.73 ± 0.11 | 2.96 ± 0.07 | 2.03 ± 0.05 | 1.48 ± 0.04
10000 kPa, quartz crystal resonator | 5.36 ± 0.12 | 3.34 ± 0.08 | 2.3 ± 0.05 | 1.65 ± 0.04
20000 kPa, Falling or rolling sphere viscometry | 6.1 ± 0.14 | 3.74 ± 0.08 | 2.53 ± 0.06 | 1.83 ± 0.04
20000 kPa, quartz crystal resonator | 6.08 ± 0.14 | 3.71 ± 0.09 | 2.54 ± 0.06 | 1.84 ± 0.04
30000 kPa, quartz crystal resonator | 6.83 ± 0.16 | 4.15 ± 0.1 | 2.82 ± 0.07 | 2.03 ± 0.05
40000 kPa, Falling or rolling sphere viscometry | 7.68 ± 0.17 | 4.64 ± 0.1 | 3.09 ± 0.07 | 2.22 ± 0.05
40000 kPa, quartz crystal resonator | 7.68 ± 0.18 | 4.63 ± 0.11 | 3.13 ± 0.07 | 2.24 ± 0.05
50000 kPa, quartz crystal resonator | – | 5.1 ± 0.12 | 3.44 ± 0.08 | 2.44 ± 0.06
60000 kPa, Falling or rolling sphere viscometry | – | 5.67 ± 0.13 | 3.73 ± 0.08 | 2.66 ± 0.06
60000 kPa, quartz crystal resonator | – | 5.67 ± 0.13 | 3.76 ± 0.09 | 2.66 ± 0.06
70000 kPa, quartz crystal resonator | – | 6.22 ± 0.14 | 4.08 ± 0.09 | 2.91 ± 0.07
80000 kPa, Falling or rolling sphere viscometry | – | 6.86 ± 0.15 | 4.46 ± 0.1 | 3.16 ± 0.07
80000 kPa, quartz crystal resonator | – | 6.89 ± 0.16 | 4.48 ± 0.1 | 3.14 ± 0.07
90000 kPa, quartz crystal resonator | – | 7.56 ± 0.17 | 4.86 ± 0.11 | 3.41 ± 0.08
100000 kPa, Falling or rolling sphere viscometry | – | 8.23 ± 0.18 | 5.27 ± 0.12 | 3.71 ± 0.08
100000 kPa, quartz crystal resonator | – | 8.14 ± 0.18 | 5.25 ± 0.12 | 3.66 ± 0.08

CCCCCCCCCCCCCC(=O)OC [methyl tetradecanoate]
viscosity [mPa·s]
Conditions | 303.15 K | 313.15 K | 333.15 K | 353.15 K
101.3 kPa, Falling or rolling sphere viscometry | 3.51 ± 0.08 | 2.8 ± 0.06 | 1.91 ± 0.04 | 1.4 ± 0.03
101.3 kPa, quartz crystal resonator | 3.51 ± 0.08 | 2.8 ± 0.07 | 1.91 ± 0.05 | 1.4 ± 0.03
10000 kPa, quartz crystal resonator | 3.95 ± 0.09 | 3.15 ± 0.07 | 2.14 ± 0.05 | 1.57 ± 0.04
20000 kPa, Falling or rolling sphere viscometry | 4.43 ± 0.1 | 3.5 ± 0.08 | 2.37 ± 0.05 | 1.72 ± 0.04
20000 kPa, quartz crystal resonator | 4.45 ± 0.1 | 3.5 ± 0.08 | 2.37 ± 0.06 | 1.74 ± 0.04
30000 kPa, quartz crystal resonator | 4.95 ± 0.11 | 3.91 ± 0.09 | 2.61 ± 0.06 | 1.92 ± 0.05
40000 kPa, Falling or rolling sphere viscometry | 5.51 ± 0.12 | 4.31 ± 0.1 | 2.89 ± 0.06 | 2.08 ± 0.05
40000 kPa, quartz crystal resonator | 5.53 ± 0.13 | 4.33 ± 0.1 | 2.88 ± 0.07 | 2.11 ± 0.05
50000 kPa, quartz crystal resonator | 6.11 ± 0.14 | 4.79 ± 0.11 | 3.16 ± 0.07 | 2.29 ± 0.05
60000 kPa, Falling or rolling sphere viscometry | – | 5.24 ± 0.12 | 3.47 ± 0.08 | 2.47 ± 0.05
60000 kPa, quartz crystal resonator | 6.79 ± 0.16 | 5.26 ± 0.12 | 3.46 ± 0.08 | 2.5 ± 0.06
70000 kPa, quartz crystal resonator | – | 5.74 ± 0.13 | 3.76 ± 0.09 | 2.71 ± 0.06
80000 kPa, Falling or rolling sphere viscometry | – | 6.31 ± 0.14 | 4.11 ± 0.09 | 2.9 ± 0.06
80000 kPa, quartz crystal resonator | – | 6.29 ± 0.14 | 4.08 ± 0.09 | 2.92 ± 0.07
90000 kPa, quartz crystal resonator | – | – | 4.46 ± 0.1 | 3.14 ± 0.07
100000 kPa, Falling or rolling sphere viscometry | – | 7.54 ± 0.17 | 4.82 ± 0.11 | 3.38 ± 0.07
100000 kPa, quartz crystal resonator | – | – | 4.81 ± 0.11 | 3.4 ± 0.08
